Data from PubChem BioAssay AID2060622 (Molecular Pharmacology Branch, DTP, NCI, 2025).
Values joined by “and” are separate entries in the source; they are usually repeats but may differ in a detail not shown here. Identical values can stand only once.

Tested on: 242566-281-R-J2-PDC complex spheroid viability
Experiment: Anticancer human tumor 242566-281-R-J2-PDC patient-derived pancreatic carcinoma cell line growth inhibition [CLK]
Settings: for viability, T/C: stronger effect = lower value
Method in brief: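 Patient-derived tumor cells grown as complex spheroids with HUVEC endothelial cells and mesenchymal stem cells, treated with drug combinations. Concentrations descend in half-log steps from near clinical Cmax, or from 10 microM if Cmax unknown.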

[1] = curve of first compound, second compound 0.0316 µM
[2] = curve of first compound, second compound 0.1 µM
[3] = curve of first compound, second compound 0.316 µM
[4] = curve of first compound, second compound 1 µM
[5] = curve of first compound, second compound 3.16 µM
[6] = curve of first compound, second compound 10 µM
[7] = second compound 0.0316 µM, first compound 0.0316 µM
[8] = second compound 0.0316 µM, first compound 0.1 µM
[9] = second compound 0.0316 µM, first compound 0.316 µM
[10] = second compound 0.0316 µM, first compound 1 µM
[11] = second compound 0.0316 µM, first compound 3.16 µM
[12] = second compound 0.0316 µM, first compound 10 µM
[13] = second compound 0.1 µM, first compound 0.0316 µM
[14] = second compound 0.1 µM, first compound 0.1 µM
[15] = second compound 0.1 µM, first compound 0.316 µM
[16] = second compound 0.1 µM, first compound 1 µM
[17] = second compound 0.1 µM, first compound 3.16 µM
[18] = second compound 0.1 µM, first compound 10 µM
[19] = second compound 0.316 µM, first compound 0.0316 µM
[20] = second compound 0.316 µM, first compound 0.1 µM
[21] = second compound 0.316 µM, first compound 0.316 µM
[22] = second compound 0.316 µM, first compound 1 µM
[23] = second compound 0.316 µM, first compound 3.16 µM
[24] = second compound 0.316 µM, first compound 10 µM
[25] = second compound 1 µM, first compound 0.0316 µM
[26] = second compound 1 µM, first compound 0.1 µM
[27] = second compound 1 µM, first compound 0.316 µM
[28] = second compound 1 µM, first compound 1 µM
[29] = second compound 1 µM, first compound 3.16 µM
[30] = second compound 1 µM, first compound 10 µM
[31] = second compound 3.16 µM, first compound 0.0316 µM
[32] = second compound 3.16 µM, first compound 0.1 µM
[33] = second compound 3.16 µM, first compound 0.316 µM
[34] = second compound 3.16 µM, first compound 1 µM
[35] = second compound 3.16 µM, first compound 3.16 µM
[36] = second compound 3.16 µM, first compound 10 µM
[37] = second compound 10 µM, first compound 0.0316 µM
[38] = second compound 10 µM, first compound 0.1 µM
[39] = second compound 10 µM, first compound 0.316 µM
[40] = second compound 10 µM, first compound 1 µM
[41] = second compound 10 µM, first compound 3.16 µM
[42] = second compound 10 µM, first compound 10 µM
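Note: spheroids exposed to compounds for 7 days before readout.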
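Throughout, for viability, T/C: 100% = DMSO vehicle control wells.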

In the case of `C#Cc1c(F)ccc2cc(O)cc(-c3ncc4c(N5CC6CCC(C5)N6)nc(OCC56CCCN5CC(F)C6)nc4c3F)c12` (stereo not given) + CN1CCN(c2cc(C(=O)Nc3cc4cc(-c5cnn(C)c5)ccc4cn3)ccn2)CC1, the IC50 [1] is reported as 84.6 nM, the IC50 [2] is reported as 65.3 nM and the IC50 [3] is reported as under 31.6 nM. It also gave an IC50 [4] of under 31.6 nM, an IC50 [5] of under 31.6 nM and an IC50 [6] of under 31.6 nM. For the same molecule, the viability, T/C [7] was 63.9%, the viability, T/C [8] was 47.5% and the viability, T/C [9] was 34%. It also gave a viability, T/C [10] of 29.4%, a viability, T/C [11] of 23.9% and a viability, T/C [12] of 17.1%. It also gave a viability, T/C [13] of 61.3%, a viability, T/C [14] of 42.9% and a viability, T/C [15] of 31.1%. For the same molecule, the viability, T/C [16] was 19.9%, the viability, T/C [17] was 18.5% and the viability, T/C [18] was 15.5%. It also gave a viability, T/C [19] of 18.4%, a viability, T/C [20] of 13.2% and a viability, T/C [21] of 12.2%. It also gave a viability, T/C [22] of 10.6%, a viability, T/C [23] of 7.18% and a viability, T/C [24] of 3.44%. For the same molecule, the viability, T/C [25] was 1.87%, the viability, T/C [26] was 1.39% and the viability, T/C [27] was 1.09%. It also gave a viability, T/C [28] of 1.22%, a viability, T/C [29] of 1.43% and a viability, T/C [30] of 1.26%. It also gave a viability, T/C [31] of 2.9%, a viability, T/C [32] of 2.24% and a viability, T/C [33] of 2.74%. For the same molecule, the viability, T/C [34] was 2.35%, the viability, T/C [35] was 2.06% and the viability, T/C [36] was 1.51%. The viability, T/C [37] was 1.01%, the viability, T/C [38] was 0.76% and the viability, T/C [39] was 0.69%. The viability, T/C [40] was 0.78%, the viability, T/C [41] was 0.71% and the viability, T/C [42] was 0.34%.
`C=CC(=O)Nc1cc(Nc2nccc(-c3cn(C)c4ccccc34)n2)c(OC)cc1N(C)CCN(C)C` was tested, and the viability, T/C (compound 0.000949 µM) was 98.9% and 87.5%, the viability, T/C (compound 0.003 µM) was 97.1% and 95.4% and the viability, T/C (compound 0.00949 µM) was 94.8% and 88.7%. The viability, T/C (compound 0.03 µM) was 95.2% and 96.2%, the viability, T/C (compound 0.0949 µM) was 95.1% and 107% and the viability, T/C (compound 0.3 µM) was 69.7% and 97.1%. For the same molecule, the IC50 (curve of compound) was over 300 nM.
Work on `Nc1ccn(C2OC(CO)C(O)C2(F)F)c(=O)n1` (stereo not given) + CNC(=O)c1ccc(Nc2nc(OC3CCCC3)c3c(-c4ccc5nc(C)oc5c4)c[nH]c3n2)c(OC)c1 yielded an IC50 [1] of 84.9 nM, an IC50 [2] of 115 nM and an IC50 [3] of 77.1 nM. For the same molecule, the IC50 [4] was 56.7 nM, the IC50 [5] was 32.1 nM and the IC50 [6] was under 31.6 nM. For the same molecule, the viability, T/C [7] was 91.5%, the viability, T/C [8] was 42.9% and the viability, T/C [9] was 21.2%. It also gave a viability, T/C [10] of 12.3%, a viability, T/C [11] of 9.35% and a viability, T/C [12] of 9.34%. It also gave a viability, T/C [13] of 91.1%, a viability, T/C [14] of 53.3% and a viability, T/C [15] of 26.7%. For the same molecule, the viability, T/C [16] was 15.5%, the viability, T/C [17] was 12.8% and the viability, T/C [18] was 10%. It also gave a viability, T/C [19] of 78%, a viability, T/C [20] of 40.5% and a viability, T/C [21] of 25.7%. It also gave a viability, T/C [22] of 14.8%, a viability, T/C [23] of 12.8% and a viability, T/C [24] of 8.22%. The viability, T/C [25] was 62.8%, the viability, T/C [26] was 37.8% and the viability, T/C [27] was 19.3%. It also gave a viability, T/C [28] of 11.9%, a viability, T/C [29] of 9.22% and a viability, T/C [30] of 6.78%. The viability, T/C [31] was 50.1%, the viability, T/C [32] was 36.2% and the viability, T/C [33] was 16.3%. It also gave a viability, T/C [34] of 10.7%, a viability, T/C [35] of 7.99% and a viability, T/C [36] of 6.76%. It also gave a viability, T/C [37] of 45.8%, a viability, T/C [38] of 34.7% and a viability, T/C [39] of 19.7%. It also gave a viability, T/C [40] of 9.76%, a viability, T/C [41] of 8.5% and a viability, T/C [42] of 7.44%.
With `COc1c(OCCCN2CCOCC2)ccc2c3n(c(=NC(=O)c4cnc(N)nc4)nc12)CCN3` the viability, T/C (compound 0.00316 µM) was 86.1% and 72.8%, the viability, T/C (compound 0.01 µM) was 73.2% and 74.1% and the viability, T/C (compound 0.0316 µM) was 44.2% and 56.4%. For the same molecule, the viability, T/C (compound 0.1 µM) was 21.8% and 30.8%, the viability, T/C (compound 0.316 µM) was 12.3% and 19.2% and the viability, T/C (compound 1 µM) was 6.02% and 16.4%. The IC50 (curve of compound) was 25.8 nM and 43.2 nM.
For `CC(CO)NC(=O)c1cc(-c2ccc(Cl)cc2)nn(-c2cnn(C)c2)c1=O` (stereo not given), the viability, T/C (compound 0.0316 µM) was 94.4% and 97.3%, the viability, T/C (compound 0.1 µM) was 96.2% and 94.5% and the viability, T/C (compound 0.316 µM) was 85.6% and 102%. For the same molecule, the viability, T/C (compound 1 µM) was 116% and 98.1%, the viability, T/C (compound 3.16 µM) was 131% and 97.1% and the viability, T/C (compound 10 µM) was 75.8% and 82.5%. It also gave an IC50 (curve of compound) of over 10000 nM.
